Consider 23 compounds from patent US20100076015A1, “Aminopyridine Derivatives” (VANTIA LIMITED, priority 2008, published 2010).

Each structure is given as a SMILES string. pIC50: −log10 of the molar value.

This experiment deals with T1, Human KLK1 (Homo sapiens, UniProt P06870).
T1 construct: purchased Callbiochem (Calbiochem)
T1 sequence (P06870 25-262): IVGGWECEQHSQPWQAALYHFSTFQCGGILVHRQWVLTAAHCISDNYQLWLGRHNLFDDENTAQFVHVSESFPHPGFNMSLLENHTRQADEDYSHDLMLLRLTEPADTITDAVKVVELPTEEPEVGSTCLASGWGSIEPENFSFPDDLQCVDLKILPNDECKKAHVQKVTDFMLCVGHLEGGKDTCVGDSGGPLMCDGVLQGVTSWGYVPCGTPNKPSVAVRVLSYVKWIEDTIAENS
Briefly: Determination of the IC50 for KLK1 (fluorogenic substrate H-DVal-Leu-Arg-AFC). The format is biochemical. The following applies: 37° C. As to the method:
Determination of the IC50 for KLK1
KLK1 inhibitory activity in vitro was determined using standard published methods (see e.g. Johansen et al., Int. J. Tiss. Reac. 1986, 8, 185; Shori et al., Biochem. Pharmacol., 1992, 43, 1209; Stürzebecher et al., Biol. Chem. Hoppe-Seyler, 1992, 373, 1025). Human KLK1 (Callbiochem) was incubated at 37° C. with the fluorogenic substrate H-DVal-Leu-Arg-AFC and various concentrations of the test compound. Residual enzyme activity (initial rate of reaction) was determined by measuring the change in optical absorbance at 410 nm and the IC50 value for the test compound was determined.
In turn, `CCC(C)[C@@H](NC)C(=O)N[C@@H](Cc1ccc(F)c(F)c1)C(=O)NCc1ccc(N)nc1` (single isomer, unassigned) [Example 53] showed a pIC50 of 7.95.
In the case of `CC(C)N1CCC[C@@H]1C(=O)N[C@@H](Cc1ccc(F)c(F)c1)C(=O)NCc1ccc(N)nc1` [Example 6, (R)-1-Isopropyl-pyrrolidine-2-carboxylic acid [(S)-1-[(6-amino-pyridin-3-ylmethyl)-carbamoyl]-2-(3,4-difluoro-phenyl)-ethyl]-amide], the pIC50 was 8.70.
Compound `Nc1ccc(CNC(=O)[C@H](Cc2ccc(Cl)c(Cl)c2)NC(=O)[C@H]2CCCN2Cc2ccccc2)cn1` [Example 7, (R)-1-Benzyl-pyrrolidine-2-carboxylic acid [(S)-1-[(6-amino-pyridin-3-ylmethyl)-carbamoyl]-2-(3,4-dichloro-phenyl)-ethyl]-amide] gave a pIC50 of 7.98.
Compound `CCC(C)[C@H](C(=O)N[C@@H](Cc1ccc(Cl)c(Cl)c1)C(=O)NCc1ccc(N)nc1)N(C)S(C)(=O)=O` (stereo partly drawn) [Example 8, (R)-2-(Methanesulfonyl-methyl-amino)-3-methyl-pentanoic acid [(S)-1-[(6-amino-pyridin-3-ylmethyl)-carbamoyl]-2-(3,4-dichloro-phenyl)-ethyl]-amide] had a pIC50 of 8.77.
`Cc1nc(N)ccc1CNC(=O)[C@H](Cc1cccc2ccccc12)NC(=O)[C@H]1CCCN1C` [Example 9, (R)-1-Methyl-pyrrolidine-2-carboxylic acid [(S)-1-[(6-amino-2-methyl-pyridin-3-ylmethyl)-carbamoyl]-2-naphthalen-1-yl-ethyl]-amide] gave a pIC50 of 8.20.
Take `CCN(CC)CC(=O)N[C@@H](Cc1ccc(F)c(F)c1)C(=O)NCc1ccc(N)nc1` [Example 10, (S)—N-(6-Amino-pyridin-3-ylmethyl)-2-(2-diethylamino-acetylamino)-3-(3,4-difluoro-phenyl)-propionamide]: the pIC50 was 7.86.
Then `CCC(C)[C@H](N)C(=O)N[C@@H](CC1CCCC2CCCCC21)C(=O)NCc1ccc(N)nc1` (stereo partly drawn) [Example 12, (S)-2-Amino-3-methyl-pentanoic acid [(S)-1-[(6-amino-pyridin-3-ylmethyl)-carbamoyl]-2-(decahydro-naphthalen-1-yl)-ethyl]-amide], with 8.20.
As for `CC(C)[C@@H](N)C(=O)N[C@@H](CC1CCCC2CCCCC21)C(=O)NCc1ccc(N)nc1` (stereo partly drawn) [Example 14, (R)-2-Amino-N-[(S)-1-[(6-amino-pyridin-3-ylmethyl)-carbamoyl]-2-(decahydro-naphthalen-1-yl)-ethyl]-3-methyl-butyramide], the pIC50 is 9.02.
`Nc1ccc(CNC(=O)[C@H](CC2CCCC3CCCCC32)NC(=O)[C@H]2CCCN2)cn1` (stereo partly drawn) [Example 15, (R)-Pyrrolidine-2-carboxylic acid [(S)-1-[(6-amino-pyridin-3-ylmethyl)-carbamoyl]-2-(decahydro-naphthalen-1-yl)-ethyl]-amide] gave a pIC50 of 8.92.
Compound `CC(C)C[C@@H](N)C(=O)N[C@@H](CC1CCCC2CCCCC21)C(=O)NCc1ccc(N)nc1` (stereo partly drawn) [Example 16, (R)-2-Amino-4-methyl-pentanoic acid [(S)-1-[(6-amino-pyridin-3-ylmethyl)-carbamoyl]-2-(decahydro-naphthalen-1-yl)-ethyl]-amide] showed a pIC50 of 8.96.
Under `NCC(=O)N[C@@H](CC1CCCC2CCCCC21)C(=O)NCc1ccc(N)nc1` (stereo partly drawn) [Example 17, (S)-2-(2-Amino-acetylamino)-N-(6-amino-pyridin-3-ylmethyl)-3-(decahydro-naphthalen-1-yl)-propionamide] stands 6.68; under `C[C@@H](N)C(=O)N[C@@H](CC1CCCC2CCCCC21)C(=O)NCc1ccc(N)nc1` (stereo partly drawn) [Example 18, (R)-2-Amino-N-[(S)-1-[(6-amino-pyridin-3-ylmethyl)-carbamoyl]-2-(decahydro-naphthalen-1-yl)-ethyl]-propionamide], 8.30.
Then `CNCC(=O)N[C@@H](CC1CCCC2CCCCC21)C(=O)NCc1ccc(N)nc1` (stereo partly drawn) [Example 19, (S)—N-(6-Amino-pyridin-3-ylmethyl)-3-(decahydro-naphthalen-1-yl)-2-(2-methylamino-acetylamino)-propionamide], with 7.67.
For `CCC(C)[C@@H](NC)C(=O)N[C@@H](CC1CCCCC1)C(=O)NCc1ccc(N)nc1` (stereo partly drawn) [Example 21, (R)-3-Methyl-2-methylamino-pentanoic acid {(S)-1-[(6-amino-pyridin-3-ylmethyl)-carbamoyl]-2-cyclohexyl-ethyl}-amide], the pIC50 was 7.64.
For `CC(C)[C@@H](N)C(=O)N[C@@H](Cc1cccc2ccccc12)C(=O)NCc1ccc(N)nc1` [Example 22, (R)-2-Amino-N-{(S)-1-[(6-amino-pyridin-3-ylmethyl)-carbamoyl]-2-naphthalen-1-yl-ethyl}-3-methyl-butyramide], the pIC50 is 8.66.
As to `CCC(C)[C@@H](N)C(=O)N[C@@H](Cc1ccccc1Cl)C(=O)NCc1ccc(N)nc1` (stereo partly drawn) [Example 24, (R)-2-Amino-3-methyl-pentanoic acid [(S)-1-[(6-amino-pyridin-3-ylmethyl)-carbamoyl]-2-(2-chloro-phenyl)-ethyl]-amide], the pIC50 is 7.56.
For `CCC(C)[C@@H](N)C(=O)N[C@@H](Cc1ccccc1C)C(=O)NCc1ccc(N)nc1` (stereo partly drawn) [Example 28, (R)-2-Amino-3-methyl-pentanoic acid {(S)-1-[(6-amino-pyridin-3-ylmethyl)-carbamoyl]-2-o-tolyl-ethyl}-amide], the negative logarithm of the IC50 (pIC50) is 7.49.
Consider `CCC(C)[C@@H](N)C(=O)N[C@@H](Cc1cccc(C#N)c1)C(=O)NCc1ccc(N)nc1` (stereo partly drawn) [Example 31, (R)-2-Amino-3-methyl-pentanoic acid [(S)-1-[(6-amino-pyridin-3-ylmethyl)-carbamoyl]-2-(3-cyano-phenyl)-ethyl]-amide], for which the pIC50 was 7.74.
Under `CCC(C)[C@@H](N)C(=O)N[C@@H](Cc1ccc(F)c(F)c1)C(=O)NCc1ccc(N)nc1` (stereo partly drawn) [Example 32, (R)-2-Amino-3-methyl-pentanoic acid [(S)-1-[(6-amino-pyridin-3-ylmethyl)-carbamoyl]-2-(3,4-difluoro-phenyl)-ethyl]-amide] stands 8.55; under `CCC(C)[C@@H](N)C(=O)N[C@@H](Cc1ccc(F)cc1)C(=O)NCc1ccc(N)nc1` (stereo partly drawn) [Example 33, (R)-2-Amino-3-methyl-pentanoic acid [(S)-1-[(6-amino-pyridin-3-ylmethyl)-carbamoyl]-2-(4-fluoro-phenyl)-ethyl]-amide], 8.28; under `CCC(C)[C@@H](N)C(=O)N[C@@H](Cc1ccc2ccccc2c1)C(=O)NCc1ccc(N)nc1` (stereo partly drawn) [Example 34, (R)-2-Amino-3-methyl-pentanoic acid {(S)-1-[(6-amino-pyridin-3-ylmethyl)-carbamoyl]-2-naphthalen-2-yl-ethyl}-amide], 8.48.
Turning to `CCC(C)[C@@H](N)C(=O)N[C@@H](Cc1ccc(Cl)c(Cl)c1)C(=O)NCc1ccc(N)nc1` (stereo partly drawn) [Example 35, (R)-2-Amino-3-methyl-pentanoic acid [(S)-1-[(6-amino-pyridin-3-ylmethyl)-carbamoyl]-2-(3,4-dichloro-phenyl)-ethyl]-amide], the pIC50 was 9.33.
As to `CCC(C)[C@@H](N)C(=O)N[C@@H](Cc1ccc(Cl)cc1)C(=O)NCc1ccc(N)nc1` (stereo partly drawn) [Example 36, (R)-2-Amino-3-methyl-pentanoic acid [(S)-1-[(6-amino-pyridin-3-ylmethyl)-carbamoyl]-2-(4-chloro-phenyl)-ethyl]-amide], the pIC50 is 8.80.
